Reference: patent publication US20050282743A1, “Molecular interactions in cells” (Arbor Vita Corporation, priority 2001, published 2005)
Ends that are not written are not given here. Peptide text beside a SMILES is read from it. * marks the point of attachment. Biotin = O=C1N[C@H]2[C@H](CS[C@H]2CCCCC(=O)*)N1

Experiments:
Test in all cases: G' assay (10 uM PL peptide), results of TABLE 7 and TABLE 12
Assay type in all cases: binding
[1] = molecular target: T1, PDZ protein (GST-PDZ fusion) (Homo sapiens, UniProt Q02410)
T1 construct: made in house; host or cells: E. coli (DH5alpha, BL21 or JM109)
T1 sequence (Q02410 1-837): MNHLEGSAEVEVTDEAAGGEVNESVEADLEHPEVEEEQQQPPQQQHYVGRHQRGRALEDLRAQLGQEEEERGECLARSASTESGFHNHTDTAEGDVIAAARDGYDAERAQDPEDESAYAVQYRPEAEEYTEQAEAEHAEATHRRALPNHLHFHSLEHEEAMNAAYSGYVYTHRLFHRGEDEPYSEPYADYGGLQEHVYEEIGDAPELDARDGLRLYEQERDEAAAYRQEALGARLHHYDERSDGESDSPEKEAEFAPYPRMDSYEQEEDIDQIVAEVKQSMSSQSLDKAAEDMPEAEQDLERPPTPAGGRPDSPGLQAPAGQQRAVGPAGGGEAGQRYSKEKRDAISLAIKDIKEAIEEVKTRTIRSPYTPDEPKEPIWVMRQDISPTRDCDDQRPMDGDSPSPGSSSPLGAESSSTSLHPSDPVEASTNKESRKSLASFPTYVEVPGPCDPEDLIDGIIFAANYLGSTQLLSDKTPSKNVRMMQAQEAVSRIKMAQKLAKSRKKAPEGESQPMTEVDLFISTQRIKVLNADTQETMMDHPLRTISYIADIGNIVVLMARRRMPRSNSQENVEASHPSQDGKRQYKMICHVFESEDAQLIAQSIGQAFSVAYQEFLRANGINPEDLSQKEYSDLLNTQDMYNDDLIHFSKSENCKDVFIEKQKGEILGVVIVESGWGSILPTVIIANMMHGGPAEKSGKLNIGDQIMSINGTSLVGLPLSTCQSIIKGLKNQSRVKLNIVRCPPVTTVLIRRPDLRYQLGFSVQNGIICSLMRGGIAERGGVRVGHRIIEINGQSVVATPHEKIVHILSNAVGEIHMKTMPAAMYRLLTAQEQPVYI
Method in brief: (§1)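 Same steps as the G-zero format, apart from a peptide concentration of 10 uM in place of 20 uM in step 2. Amino-terminally biotinylated PL peptides bind GST-PDZ fusions, and retained peptide is quantified by 450 nm absorbance.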

[2] = system: PDZ protein (GST-PDZ fusion)
Method in brief: as §1

[3] = molecular target: T2, PDZ protein (GST-PDZ fusion) (Homo sapiens, UniProt Q96JH8); conditions: PDZ FLJ 10324, PDZ Domain 1
T2 construct: made in house; host or cells: E. coli (DH5alpha, BL21 or JM109)
T2 sequence (Q96JH8 1-1075): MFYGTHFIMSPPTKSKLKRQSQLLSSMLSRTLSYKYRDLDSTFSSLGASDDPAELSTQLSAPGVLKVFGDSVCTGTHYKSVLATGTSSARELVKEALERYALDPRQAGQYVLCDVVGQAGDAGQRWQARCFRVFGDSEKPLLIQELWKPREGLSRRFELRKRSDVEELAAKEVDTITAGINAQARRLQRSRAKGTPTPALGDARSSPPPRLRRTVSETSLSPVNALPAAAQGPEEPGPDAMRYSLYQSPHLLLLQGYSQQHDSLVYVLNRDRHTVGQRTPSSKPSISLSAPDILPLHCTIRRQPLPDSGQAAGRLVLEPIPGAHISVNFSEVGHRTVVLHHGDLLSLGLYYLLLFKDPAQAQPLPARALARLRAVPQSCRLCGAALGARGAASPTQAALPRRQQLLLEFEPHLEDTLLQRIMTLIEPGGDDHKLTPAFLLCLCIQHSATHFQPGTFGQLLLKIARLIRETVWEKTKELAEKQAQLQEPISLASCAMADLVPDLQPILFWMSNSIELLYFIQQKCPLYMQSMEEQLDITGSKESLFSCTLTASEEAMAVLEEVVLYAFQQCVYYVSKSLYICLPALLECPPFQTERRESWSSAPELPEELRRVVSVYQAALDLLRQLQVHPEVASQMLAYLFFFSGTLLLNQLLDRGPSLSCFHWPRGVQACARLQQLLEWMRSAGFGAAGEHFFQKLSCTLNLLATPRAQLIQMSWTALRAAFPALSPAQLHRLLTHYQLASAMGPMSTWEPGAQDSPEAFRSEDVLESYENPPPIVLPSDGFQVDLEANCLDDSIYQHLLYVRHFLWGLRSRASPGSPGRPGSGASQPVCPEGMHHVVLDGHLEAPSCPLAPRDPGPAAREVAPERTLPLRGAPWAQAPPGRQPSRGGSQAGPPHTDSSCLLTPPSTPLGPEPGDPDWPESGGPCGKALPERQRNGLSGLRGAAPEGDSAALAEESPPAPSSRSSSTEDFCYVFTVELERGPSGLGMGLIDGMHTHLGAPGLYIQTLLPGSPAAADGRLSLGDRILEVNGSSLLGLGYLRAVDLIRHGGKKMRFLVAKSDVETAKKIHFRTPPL
Method in brief: as §1

[4] = PDZ HEMBA 1003117, PDZ Domain 1

Row | Compound | Classification ([1]; PDZ Mint 1, PDZ Domain 2) | Classification [3] | Classification ([1]; PDZ Mint 1, PDZ Domain 1, 2) | Classification ([2]; PDZ BAI-1, PDZ Domain 2) | Classification ([2]; PDZ BAI-1, PDZ Domain 3) | Classification ([2]; PDZ FLJ 00011, PDZ Domain 1) | Classification [2, 4] | Classification ([2]; PDZ SHANK, PDZ Domain 1) | also measured
1 | CC[C@H](C)[C@H](NC(=O)[C@H](CCCCN)NC(=O)[C@@H](NC(=O)[C@H](CO)NC(=O)[C@@H]1CCCN1C(=O)[C@H](Cc1ccccc1)NC(=O)[C@@H](NC(=O)[C@@H](NC(=O)[C@H](CCCNC(=N)N)NC(=O)[C@H](CCC(=O)O)NC(=O)[C@H](CC(C)C)NC(=O)[C@H](CC(C)C)NC(=O)[C@H](CC(C)C)NC(=O)[C@@H](NC(=O)CNC(=O)[C@@H](NC(=O)CCCC[C@@H]1SC[C@@H]2NC(=O)N[C@@H]21)C(C)C)[C@@H](C)O)C(C)C)[C@@H](C)CC)C(C)C)C(=O)N[C@@H](C)C(=O)N[C@H](C(=O)N[C@@H](CC(C)C)C(=O)N[C@H](C(=O)O)C(C)C)[C@@H](C)O [Adenovirus E4 Type9] |  |  |  |  |  |  |  |  | Classification ([1]; PDZ Mint 1, PDZ Domain 1, 2, PL peptide 10 uM): 2 (A450 nm 1-2); Classification ([1]; PDZ Mint 1, PDZ Domain 2, PL peptide 10 uM): 2 (A450 nm 1-2); Classification ([2]; PDZ BAI-1, PDZ Domain 2, Protein Optimal Conc 0.3): 5 (A450 nm of 4 more than 2× repeated); Classification ([2]; PDZ BAI-1, PDZ Domain 3, Protein Optimal Conc 0.5): 5 (A450 nm of 4 more than 2× repeated); Classification ([2]; PDZ BAI-1, PDZ Domain 4, Protein Optimal Conc 0.3): 5 (A450 nm of 4 more than 2× repeated); Classification ([2]; PDZ BAI-1, PDZ Domain 6, PL peptide 10 uM): 1 (A450 nm 0-1); Classification ([2]; PDZ Connector Enhancer, PDZ Domain 1, Protein Optimal Conc 5): 3 (A450 nm 2-3); Classification ([2]; PDZ FLJ 00011, PDZ Domain 1, PL peptide 10 uM): 1 (A450 nm 0-1); Classification ([2]; PDZ HEMBA 1003117, PDZ Domain 1, Protein Optimal Conc 5): 3 (A450 nm 2-3); Classification ([3]; Protein Optimal Conc 5): 3 (A450 nm 2-3)
2 | CC(C)C[C@H](NC(=O)[C@H](C)NC(=O)[C@H](CO)NC(=O)CNC(=O)[C@@H](NC(=O)CCCC[C@@H]1SC[C@@H]2NC(=O)N[C@@H]21)[C@@H](C)O)C(=O)N[C@@H](CCC(N)=O)C(=O)N[C@@H](C)C(=O)N[C@@H](Cc1c[nH]c2ccccc12)C(=O)N[C@@H](CCCNC(=N)N)C(=O)N[C@@H](Cc1c[nH]cn1)C(=O)N[C@H](C(=O)N[C@@H](CO)C(=O)N[C@@H](CCCNC(=N)N)C(=O)N[C@@H](CCC(N)=O)C(=O)N[C@@H](C)C(=O)N[C@H](C(=O)N[C@@H](CCC(=O)O)C(=O)N[C@@H](CO)C(=O)N[C@H](C(=O)N[C@H](C(=O)O)C(C)C)[C@@H](C)O)[C@@H](C)O)[C@@H](C)O [HPV E6 #66 (modified)] (Biotin-TGSALQAWRHTSRQATESTV-OH; C-terminus assumed) | 1 (A450 nm 0-1) | 1 (A450 nm 0-1) | 1 (A450 nm 0-1) | 5 (A450 nm of 4 more than 2× repeated) | 1 (A450 nm 0-1) | 1 (A450 nm 0-1) |  |  | Classification ([2]; PDZ BAI-1, PDZ Domain 5): 1 (A450 nm 0-1)
3 | ALVLIAFCIIRRRPSAYQAL (Biotin-ALVLIAFCIIRRRPSAYQAL) [CD68] | 2 (A450 nm 1-2) | 1 (A450 nm 0-1) | 1 (A450 nm 0-1) | 3 (A450 nm 2-3) |  |  |  | 1 (A450 nm 0-1) | 
4 | CC[C@H](C)[C@H](NC(=O)[C@H](CCC(N)=O)NC(=O)[C@@H](NC(=O)[C@H](Cc1c[nH]cn1)NC(=O)[C@H](CCC(N)=O)NC(=O)[C@H](CC(=O)O)NC(=O)[C@H](CCC(=O)O)NC(=O)[C@H](CC(=O)O)NC(=O)[C@H](Cc1ccccc1)NC(=O)[C@@H]1CCCN1C(=O)[C@H](CCC(=O)O)NC(=O)[C@H](CC(N)=O)NC(=O)[C@H](CCC(=O)O)NC(=O)[C@@H]1CCCN1C(=O)[C@H](CC(=O)O)NC(=O)[C@H](CO)NC(=O)[C@H](CC(=O)O)NC(=O)CCCC[C@@H]1SC[C@@H]2NC(=O)N[C@@H]21)[C@@H](C)O)C(=O)N[C@H](C(=O)N[C@@H](CCCCN)C(=O)N[C@H](C(=O)O)C(C)C)[C@@H](C)O [PTEN] | 1 (A450 nm 0-1) | 1 (A450 nm 0-1) | 1 (A450 nm 0-1) |  | 2 (A450 nm 1-2) | 3 (A450 nm 2-3) | 1 (A450 nm 0-1) | 3 (A450 nm 2-3) | 
5 | CSCC[C@H](NC(=O)[C@H](C)NC(=O)[C@H](CCCNC(=N)N)NC(=O)CNC(=O)[C@@H](NC(=O)[C@H](Cc1c[nH]c2ccccc12)NC(=O)[C@H](CCCNC(=N)N)NC(=O)CNC(=O)CCCC[C@@H]1SC[C@@H]2NC(=O)N[C@@H]21)[C@@H](C)O)C(=O)N[C@@H](CO)C(=O)N[C@@H](C)C(=O)N[C@@H](Cc1c[nH]c2ccccc12)C(=O)N[C@@H](CCCCN)C(=O)N1CCC[C@H]1C(=O)N[C@H](C(=O)N[C@@H](CCCNC(=N)N)C(=O)N[C@@H](CCCNC(=N)N)C(=O)N[C@@H](CCC(=O)O)C(=O)N[C@H](C(=O)N[C@@H](CCC(=O)O)C(=O)N[C@H](C(=O)O)C(C)C)[C@@H](C)O)[C@@H](C)O [HPV E6 #35 (modified)] (Biotin-GRWTGRAMSAWKPTRRETEV-OH; C-terminus assumed) | 2 (A450 nm 1-2) | 1 (A450 nm 0-1) | 1 (A450 nm 0-1) | 5 (A450 nm of 4 more than 2× repeated) | 4 (A450 nm 3-4) | 3 (A450 nm 2-3) | 1 (A450 nm 0-1) |  | Classification ([2]; PDZ BAI-1, PDZ Domain 4): 5 (A450 nm of 4 more than 2× repeated); Classification ([2]; PDZ BAI-1, PDZ Domain 5): 5 (A450 nm of 4 more than 2× repeated); Classification ([2]; PDZ BAI-1, PDZ Domain 6): 3 (A450 nm 2-3); Classification ([2]; PDZ Connector Enhancer, PDZ Domain 1): 1 (A450 nm 0-1); Classification ([2]; PDZ FLJ 11215, PDZ Domain 1): 4 (A450 nm 3-4)

Second part, led by results:

Row | Classification ([1]; PDZ Mint 1, PDZ Domain 2) | Classification [3] | Compound | Classification ([1]; PDZ Mint 1, PDZ Domain 1, 2) | Classification ([2]; PDZ BAI-1, PDZ Domain 2) | Classification ([2]; PDZ BAI-1, PDZ Domain 3) | Classification ([2]; PDZ FLJ 00011, PDZ Domain 1) | Classification [2, 4] | Classification ([2]; PDZ SHANK, PDZ Domain 1) | also measured
6 | 5 (A450 nm of 4 more than 2× repeated) | 5 (A450 nm of 4 more than 2× repeated) | ELLQFCRTPNPALKNGQYWV (Biotin-ELLQFCRTPNPALKNGQYWV) | 5 (A450 nm of 4 more than 2× repeated) | 2 (A450 nm 1-2) |  |  | 5 (A450 nm of 4 more than 2× repeated) |  | Classification ([1]; PDZ Mint 1, PDZ Domain 1): 2 (A450 nm 1-2); Classification ([2]; PDZ BAI-1, PDZ Domain 6): 4 (A450 nm 3-4)
7 | 1 (A450 nm 0-1) | 1 (A450 nm 0-1) | PPATPSPRLALPAHHNATRL (Biotin-PPATPSPRLALPAHHNATRL) [Na+/Pi cotransporter 2] |  |  |  |  |  | 5 (A450 nm of 4 more than 2× repeated) | 
8 | 1 (A450 nm 0-1) | 4 (A450 nm 3-4) | KTMPAAMFRLLTGQETPLYI (Biotin-KTMPAAMFRLLTGQETPLYI) [MINT-2] | 5 (A450 nm of 4 more than 2× repeated) |  |  |  | 3 (A450 nm 2-3) |  | Classification ([1]; PDZ Mint 1, PDZ Domain 1): 2 (A450 nm 1-2)
